# Test results reported in patent US20260364030A1, “NOVEL SELECTIVE INHIBITORS OF LYSYL OXIDASES” (Syntara Limited, priority 2022, published 2026).
# Legend:
# LOX = conditions: CIA rats; cited from earlier work
# systemic LOX = conditions: mouse, in vivo; cited from earlier work
# [1] = tested on: SiHa cervical cancer cells; conditions: in vitro, hypoxic/anoxic conditions; cited from earlier work
# [2] = target: T1, Human recombinant SSAO/VAP-1 (Homo sapiens, UniProt Q16853); assay: Inhibition of human recombinant SSAO/VAP-1, fluorescent Amplex Red assay; type: biochemical; conditions: 30 min incubation at 37 °C; benzylamine 600 μM in reaction mixture
# T1 construct: a cloned cDNA template corresponding to residues 34-763 of human SSAO/VAP-1; TEV cleavage site (N); made in house; host or cells: CHO-K1 glycosylation mutant cell line, Lee 8 (vector assembled by Geneart AG)
# T1 sequence (Q16853 34-763): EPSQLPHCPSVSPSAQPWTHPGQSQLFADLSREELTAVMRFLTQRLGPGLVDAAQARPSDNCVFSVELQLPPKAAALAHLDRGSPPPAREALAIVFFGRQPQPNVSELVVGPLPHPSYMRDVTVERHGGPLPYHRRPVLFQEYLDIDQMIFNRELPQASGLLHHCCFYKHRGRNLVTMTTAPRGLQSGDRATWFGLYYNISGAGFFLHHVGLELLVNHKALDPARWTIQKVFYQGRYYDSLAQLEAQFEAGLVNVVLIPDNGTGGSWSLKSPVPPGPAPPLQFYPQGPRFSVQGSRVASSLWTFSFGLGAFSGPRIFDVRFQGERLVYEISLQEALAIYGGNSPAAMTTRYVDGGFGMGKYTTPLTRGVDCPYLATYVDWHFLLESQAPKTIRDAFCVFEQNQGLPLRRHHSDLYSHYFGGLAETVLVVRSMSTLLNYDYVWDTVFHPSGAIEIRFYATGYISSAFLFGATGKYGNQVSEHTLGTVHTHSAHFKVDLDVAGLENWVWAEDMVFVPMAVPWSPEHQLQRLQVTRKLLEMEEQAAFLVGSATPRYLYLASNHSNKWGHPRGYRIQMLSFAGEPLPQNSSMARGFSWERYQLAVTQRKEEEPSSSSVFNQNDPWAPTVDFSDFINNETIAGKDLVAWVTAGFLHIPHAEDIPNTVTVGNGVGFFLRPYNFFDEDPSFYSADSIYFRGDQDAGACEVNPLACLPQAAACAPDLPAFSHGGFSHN
# Description: (§1) Human recombinant SSAO/VAP-1 amine oxidase activity was determined using the coupled colorimetric method as described for monoamine oxidase, copper-containing amine oxidases and related enzymes [Holt A. and Palcic M., 2006]. Briefly, a cloned cDNA template corresponding to residues 34-763 of human SSAO/VAP-1, and incorporating a mouse Ig kappa (κ) signal sequence, N-terminal flag epitope tag and tobacco etch virus (TEV) cleavage site, was assembled in a mammalian expression vector (pLO-CMV) by Geneart AG. This vector containing human SSAO/VAP-1 residues was transfected into CHO-K1 glycosylation mutant cell line, Lee 8. A clone stably expressing human SSAO/VAP-1 was isolated and cultured in large scale. Active human SSAO/VAP-1 was purified and recovered using immunoaffinity chromatography. This was used as the source for SSAO/VAP-1 activity. A high-throughput fluorescent assay was developed using either 96 or 384 well format. Briefly, in a standard 384 well plate assay 25 μL of purified human SSAO/VAP-1 (0.25 μg/mL) in 0.1 M sodium phophate buffer (pH 7.4) was added into each well. […] The fluorescence unit (RFU) was read every 2.5 min for 30 min at 37 °C excitation 544 nm and emission 590 (Optima; BMG labtech). The slope/min of the kinetics for each well was calculated using MARS data analysis software (BMG labtech) and this value was used to deduce the IC50 value (Dotmatics).
# LOXL1 = target: T2, LOXL1 (Homo sapiens, UniProt Q08397); assay: Time-dependent inhibition of LOXL1, Amplex Red oxidation assay; type: biochemical; conditions: for IC50: 37 °C
# T2 sequence (Q08397 96-574): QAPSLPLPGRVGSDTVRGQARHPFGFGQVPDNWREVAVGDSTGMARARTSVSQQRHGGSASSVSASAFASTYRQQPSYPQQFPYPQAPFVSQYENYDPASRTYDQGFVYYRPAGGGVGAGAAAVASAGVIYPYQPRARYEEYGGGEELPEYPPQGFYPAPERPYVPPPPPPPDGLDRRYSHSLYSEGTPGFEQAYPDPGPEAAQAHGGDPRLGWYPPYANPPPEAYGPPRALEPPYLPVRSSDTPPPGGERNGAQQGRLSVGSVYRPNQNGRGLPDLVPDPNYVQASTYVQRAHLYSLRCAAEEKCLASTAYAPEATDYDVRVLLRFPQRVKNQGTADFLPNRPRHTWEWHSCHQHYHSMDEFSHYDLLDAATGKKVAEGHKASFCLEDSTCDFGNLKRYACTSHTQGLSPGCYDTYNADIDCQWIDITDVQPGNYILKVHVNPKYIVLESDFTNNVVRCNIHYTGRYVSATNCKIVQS
# Description: The time dependent inhibitory effects of the Compound 1 of the present invention were tested against the given LOXL1 preparation and LOXL2 preparation using a method based on the detection of hydrogen peroxide with an Amplex Red oxidation assay [Zhou et al. 1997]. The assay was developed for use in either 384 or 96 well format. Briefly, in a standard black, clear bottom 384 well plate assay 25 µL of a dilution of any of the isoenzymes and orthologues in 1.2 M urea, 50 mM sodium borate buffer (pH 8.2) were added into each well in the presence of […] and 0.5 mM pargyline (to inhibit SSAO and MAO-B and MAO-A, respectively; not necessary if the enzyme is from a recombinant or purified form). Test compound (Compound 1) was dissolved in DMSO and tested in a Concentration Response Curve (CRC) with 11 data points, typically in the micromolar or nanomolar range after incubation with the enzyme for different time points at 37 °C. 25 μL of a reaction mixture containing twice the KM concentration of putrescine (Sigma Aldrich, e.g. 20 mM for LOXL1 or 10 mM for LOXL2), 120 µM Amplex Red (Thermo Fisher Scientific) and 1.5 U/mL horseradish peroxidase (Sigma Aldrich) prepared in 1.2 M urea, 50 mM sodium borate buffer (pH 8.2) were then added to the corresponding wells. The fluorescence (RFU) was read every 2.5 min for 30 min at 37 °C, excitation 544 nm and emission 590 nm (Optima; BMG labtech). The slope/min of the kinetics for each well was calculated using MARS data analysis software (BMG labtech) and this value was used to deduce the IC50 value (Dotmatics).
# [3] = tested on: SSAO/VAP-1, MAO-B, MAO-A and DAO; assay: Selectivity with respect to other amine oxidases; type: biochemical, human
# Description: as §1, with “(Dotmatics). […]” for “(Dotmatics).”
Structure (SMILES),"Effect on inflammation, synovial hyperplasia, angiogenesis, MMP-2 and MMP-9 expression (LOX)",Metastasis and survival (systemic LOX),Invasion of SiHa cells [1],IC50 [2],IC50 (LOXL1; 30′ incubation),IC50 (LOXL1; 2 h incubation),IC50 (LOXL1; 4 h incubation),Time dependent LOXL1 inhibition (LOXL1; apparent potency increasing with time),"Selectivity for LOX family with respect to SSAO/VAP-1, MAO-B, MAO-A and DAO [3]"
"N#CCCN [BAPN, β-aminopropionitrile, reference compound]","attenuate inflammation, synovial hyperplasia, angiogenesis and expression of MMP-2 and MMP-9",reducing metastasis and increasing survival,repressed,,,,,,
"NC/C(=C\F)CS(=O)(=O)c1ccccc1 [Compound 1, (E)-3-fluoro-2-((phenylsulfonyl)methyl)prop-2-en-1-amine]",,,,> 30000 nM,9470 nM,1700 nM,920 nM,time dependent LOXL1 and LOXL2 inhibition,selectively inhibit members of the LOX family of enzymes
